Data reported in patent US6716851B2, “Substituted 2-aryl-4-arylaminopyrimidines and analogs as activators or caspases and inducers of apoptosis and the use thereof” (Cytovia, Inc., priority 2000, dated 2004).
Like-named read-outs stand apart in the source and are kept apart here.

Legend:
Type in all cases: cell-based
SK-Br-3 cells = assay: Cell proliferation assay (GI50) in SK-Br-3 cells; settings: Homo sapiens, SK-BR-3, 48 h
Description: [Worded in the source for another cell line; this cell line is reported under the same test.] (§1) T-47D cells were grown and harvested as in Example 221. An aliquot of 90 μl of cells (2.2×10^4 cells/ml) was added to a well of a 96-well microtiter plate containing 10 μl of a 10% DMSO in RPMI-1640 media solution containing 1 nM to 100 μM of 4-(3-methoxyanilino)-2-(2-pyridinyl)-6-(trifluoromethyl)pyrimidine (0.1 nM to 10 μM final). An aliquot of 90 μl of cells was added to a well of a 96-well microtiter plate containing 10 μl of a 10% DMSO in RPMI-1640 media solution without compound as the control sample for maximal cell proliferation (AMax). The samples were mixed by agitation and then incubated at 37° C. for 48 h in a 5% CO2-95% humidity incubator. After incubation, the samples were removed from the incubator and 20 μl of CellTiter 96 AQueous One Solution Cell Proliferation^TM reagent (Promega) was added. The samples were mixed by agitation and incubated at 37° C. for 2-4 h in a 5% CO2-95% humidity incubator. Using an absorbance plate reader (Model 1420 Wallac Instruments), an initial reading (T=0) was made approximately 1-2 min after addition of the solution, employing absorbance at 490 nm. This determines the possible background absorbance of the test compounds. No absorbance for 4-(3-methoxyanilino)-2-(2-pyridinyl)-6-(trifluoromethyl)pyrimidine was found at 490 nm. After the 2-4 h incubation, the samples were read for absorbance as above (ATest). […]

T47D cells = assay: Clonogenic survival of T47D cells; settings: Homo sapiens, 48 h treatment, colonies after 7-10 days, read-out: IC50 inhibition of clonogenic survival (colony forming ability), T47D
Description: (§2) T47D and MX-1 cells were grown according to the conditions according conditions recommended by American Type Culture Collection. In a well of a 96 well plate, 30,000 cells were seeded and treated with tested compound at the indicated concentrations for 48 hr in a 5% CO2-95% humidity incubator at 37° C. Control wells were treated with the same amount of solvent (DMSO) as the compound samples. After the 48 h treatment, the supernatant was removed to a sterile culture tube and the wells washed with phosphate buffered saline, and the adherent cells trypsinized for 5 min. The trypsinzed cells were added to the culture supernatant, cells were collected (1,200 rpm, 10 min), washed with phosphate buffered saline, and resuspended in fresh media. The cells were counted for trypan blue negative cells, and the cells diluted with fresh media to 1,000 cells/ml. To a well of a 24-well plate, 0.1 ml of the cell suspension was added along with 1 ml of fresh media (cell suspensions were passed through a 22G needle several times just before plating to form single cell suspensions). Plates are incubated in a 5% CO2-95% humidity incubator at 37° C. for 7-10 days. Colonies are counted when the sizes reached greater than 50 cells per colony. […] Colonies are rinsed with water and the colonies counted and the fraction surviving expressed as the percentage of the number of control colonies.

[1] = test system: Panc-1 (pancreatic cancer cell line); assay: Cell proliferation assay (GI50) in Panc-1 cells; settings: Homo sapiens, PANC-1, 48 h
Description: [Worded in the source for another cell line; this cell line is reported under the same test.] as §1

T-47D cells = assay: Cell proliferation assay (GI50) in T-47D cells; settings: Homo sapiens, T47D, 48 h
Description: as §1

[2] = test system: P388 (mouse leukemia cell line); assay: Cell proliferation assay (GI50) in P388 cells; settings: P388, 48 h
Description: [Worded in the source for another organism; used here, by the source, with some conditions changed.] as §1

MX-1 cells = assay: Clonogenic survival of MX-1 cells; settings: Homo sapiens, MX1; MX-1, 48 h treatment, colonies after 7-10 days; read-out: IC50 inhibition of clonogenic survival (colony forming ability), MX-1
Description: as §2

[3] = test system: SW620 (colorectal cancer cell line); assay: Cell proliferation assay (GI50) in SW620 cells; settings: Homo sapiens, SW-620; SW620, 48 h
Description: [Worded in the source for another cell line; used here, by the source, with some conditions changed.] as §1

## COc1cccc(Nc2cc(C(F)(F)F)nc(-c3ccccn3)n2)c1 [Compound A, 4-(3-methoxyanilino)-2-(2-pyridinyl)-6-(trifluoromethyl)pyrimidine]
SK-Br-3 cells
  GI50: 60 nM
T47D cells
  IC50: ~100 nM
[1]
  GI50: > 10000 nM
T-47D cells; T-47D, Table II, read-out: GI50
  GI50: 30 nM
T-47D cells; Table III, read-out: GI50(nM) T47D
  GI50: 30 nM
[2]
  GI50: > 10000 nM
MX-1 cells
  IC50: ~300 nM
[3]
  GI50: > 10000 nM
